The values below come from patent publication US10759766B2, “Certain chemical entities, compositions, and methods” (NeuPharma, Inc., priority 2011, dated 2020).

The structures appear in SMILES notation.

One assay addresses BRAF (Homo sapiens (Human), UniProt P15056). Description: Z′-LYTE kinase inhibition assay (Invitrogen), BRAF. Format: biochemical. The conditions noted are these: 1 μM compound, Z′-LYTE method; read-out: % inhibition at 1 μM against BRAF. As to the method: Inhibitory activities Inhibitory activities of compounds against BRAF, and BRAF V600E were measured by Invitrogen using Z′-LYTE® Method as briefly described in the following. 4× Test compounds are dissolved in 1% DMSO. […] ATP solutions are diluted to a 4×ATP working concentration in Kinase Buffer (50 mM HEPES pH 7.5, 0.01% BRIJ-35, 10 mM MgCl2, 1 mM EGTA). Reaction started by 30-second shaking of mixture consisting of 2.5 μL 4× test compound, […] and 2.5 μL 4×ATP Solution on Bar-coded Corning, low volume NBS, black 384-well plate (Corning Cat. #3676). Then the mixture was incubated for 60-minute at room temperature for the kinase reaction, followed by addition of 5 μL of a 1:1024 dilution of development reagent A and 30-second plate shake. The mixture was then incubated for another 60-minute at room temperature for development reaction. Fluorescence was read by plate reader. IC50 was calculated by plotting the concentration of compound vs the percentage of inhibition in treated wells using GraphPad Prism 5.

The next assay addresses BRAF V600E (Homo sapiens (Human), UniProt P15056, V600E). Description: Z′-LYTE kinase inhibition assay (Invitrogen), BRAF V600E. Format: biochemical. The conditions noted are these: Z′-LYTE method; for inhibition at 1 µM: 1 μM compound, read-out: % inhibition at 1 μM against BRAF V600E; for IC50: read-out: IC50 against BRAF V600E. In outline: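 FRET-based Z′-LYTE peptide phosphorylation format in 50 mM HEPES pH 7.5, 0.01% BRIJ-35, 10 mM MgCl2, 1 mM EGTA with ATP. Kinase reaction 60 min at room temperature, then protease development step 60 min at room temperature before fluorescence read. IC50 from compound concentration versus percent inhibition.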

Another assay deals with KDR (VEGFR2) (Homo sapiens (Human), UniProt P35968). Description: Z′-LYTE kinase inhibition assay (Invitrogen), KDR. Format: biochemical. Particulars: Z′-LYTE method; for inhibition at 1 µM: 1 μM compound, read-out: % inhibition at 1 μM against KDR; for IC50: read-out: IC50 against KDR. The procedure, abridged:
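Z′-LYTE FRET assay: 10 μL reactions with 0.5–11.7 ng KDR and 2 μM Tyr 01 peptide in 50 mM HEPES pH 7.5, 10 mM MgCl2, 1 mM EGTA, 0.01% BRIJ-35, 1 h at room temperature. Development Reagent B (1:256) added for 60 min, fluorescence read; IC50 from concentration–inhibition curves.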

In another assay the test system is A375 cells. The assay is described as follows: Inhibition of cancer cell growth, MTT assay, A375. Format: cell-based. Particulars: Homo sapiens, A-375, 72 h exposure. The procedure, abridged:
(§1)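 Cells grown in RPMI 1640 with 10% FBS were seeded at about 4000 cells/well, left 24 h, then exposed to compound for 72 h (1% DMSO final). MTT absorbance at 570 nm was compared with viable cells at time of addition to give growth inhibition; IC50 from concentration–inhibition plots, triplicates.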
On the technique in general: Formazan colour is commonly taken as a measure of viable cells.

For a further assay, the system named is A549 cells. Description: Inhibition of cancer cell growth, MTT assay, A549. Format: cell-based. Particulars: Homo sapiens, A549, 72 h exposure. In outline: as §1

BRAF, sequence (P15056 whole entry): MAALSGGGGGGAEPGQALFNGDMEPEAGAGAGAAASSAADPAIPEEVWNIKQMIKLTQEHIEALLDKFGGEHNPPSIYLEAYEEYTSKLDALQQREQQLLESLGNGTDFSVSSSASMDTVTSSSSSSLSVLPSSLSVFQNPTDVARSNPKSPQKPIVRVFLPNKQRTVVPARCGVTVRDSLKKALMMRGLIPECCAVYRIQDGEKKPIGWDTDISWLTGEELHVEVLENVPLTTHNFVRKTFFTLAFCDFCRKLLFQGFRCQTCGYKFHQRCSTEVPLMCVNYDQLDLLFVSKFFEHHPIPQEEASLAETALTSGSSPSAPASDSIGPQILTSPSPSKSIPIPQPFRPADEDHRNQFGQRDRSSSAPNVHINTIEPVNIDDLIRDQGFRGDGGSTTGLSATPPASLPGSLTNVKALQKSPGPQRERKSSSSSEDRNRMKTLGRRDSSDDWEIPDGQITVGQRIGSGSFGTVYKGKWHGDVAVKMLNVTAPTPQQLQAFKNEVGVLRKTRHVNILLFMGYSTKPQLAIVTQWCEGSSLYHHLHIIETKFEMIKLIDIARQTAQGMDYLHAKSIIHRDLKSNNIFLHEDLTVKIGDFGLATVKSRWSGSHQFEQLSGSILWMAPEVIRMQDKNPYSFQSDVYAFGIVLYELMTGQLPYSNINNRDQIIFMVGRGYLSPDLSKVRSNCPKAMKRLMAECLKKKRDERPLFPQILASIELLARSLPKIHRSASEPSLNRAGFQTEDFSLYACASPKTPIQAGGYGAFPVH
BRAF V600E, sequence (P15056 whole entry V600E): as the sequence (P15056 whole entry) above, with V600E counted along it
KDR (VEGFR2), sequence (P35968 20-1356): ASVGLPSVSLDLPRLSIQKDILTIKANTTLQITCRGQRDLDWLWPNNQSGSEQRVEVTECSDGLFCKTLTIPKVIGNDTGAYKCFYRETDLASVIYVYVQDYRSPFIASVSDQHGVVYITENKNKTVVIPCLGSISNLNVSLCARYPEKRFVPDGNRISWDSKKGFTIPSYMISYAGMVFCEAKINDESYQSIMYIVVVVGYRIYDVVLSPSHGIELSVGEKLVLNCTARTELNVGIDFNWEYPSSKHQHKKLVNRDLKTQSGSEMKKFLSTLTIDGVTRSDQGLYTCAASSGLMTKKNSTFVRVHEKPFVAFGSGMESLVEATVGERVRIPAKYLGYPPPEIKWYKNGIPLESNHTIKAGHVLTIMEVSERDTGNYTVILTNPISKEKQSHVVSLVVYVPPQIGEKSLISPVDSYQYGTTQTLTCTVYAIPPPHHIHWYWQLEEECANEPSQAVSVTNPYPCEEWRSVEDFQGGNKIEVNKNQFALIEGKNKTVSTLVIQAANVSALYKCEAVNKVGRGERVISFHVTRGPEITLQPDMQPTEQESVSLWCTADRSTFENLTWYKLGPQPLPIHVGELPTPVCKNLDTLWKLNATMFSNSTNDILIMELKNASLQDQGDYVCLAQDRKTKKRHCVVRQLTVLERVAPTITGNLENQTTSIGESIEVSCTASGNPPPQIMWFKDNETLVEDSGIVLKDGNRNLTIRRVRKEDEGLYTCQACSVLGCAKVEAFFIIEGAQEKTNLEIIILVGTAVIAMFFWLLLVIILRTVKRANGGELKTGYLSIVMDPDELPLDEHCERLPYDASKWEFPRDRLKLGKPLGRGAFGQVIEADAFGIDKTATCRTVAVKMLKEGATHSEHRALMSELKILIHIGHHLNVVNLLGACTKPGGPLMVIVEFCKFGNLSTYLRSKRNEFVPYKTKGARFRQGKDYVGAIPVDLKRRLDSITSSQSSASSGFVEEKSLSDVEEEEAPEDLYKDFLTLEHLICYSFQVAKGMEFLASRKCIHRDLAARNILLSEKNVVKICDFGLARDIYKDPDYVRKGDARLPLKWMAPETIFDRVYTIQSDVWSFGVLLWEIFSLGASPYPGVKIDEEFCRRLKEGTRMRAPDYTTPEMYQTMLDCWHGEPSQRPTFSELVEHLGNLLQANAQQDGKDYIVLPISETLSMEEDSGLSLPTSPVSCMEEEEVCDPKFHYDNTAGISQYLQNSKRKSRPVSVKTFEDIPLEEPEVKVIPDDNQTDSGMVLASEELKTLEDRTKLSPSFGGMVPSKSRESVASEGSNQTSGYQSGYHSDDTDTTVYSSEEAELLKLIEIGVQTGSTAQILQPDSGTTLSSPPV

As usually defined, the inhibition is how much of the control response was suppressed. For orientation: IC50 means the midpoint of a concentration-inhibition curve. Consider `O=C(Nc1cc(F)cc(C(=O)c2ccc3ncc(N4CCOCC4)nc3c2)c1)Nc1cccc(C(F)(F)F)c1` [Compound C038, 1-(3-fluoro-5-(3-morpholinoquinoxaline-6-carbonyl)phenyl)-3-(3-(trifluoromethyl)phenyl)urea], for which the inhibition at 1 µM at BRAF is 70 to 89%; at BRAF V600E it was more than 89%; on KDR (VEGFR2), 70 to 89%. Further, the IC50 at BRAF V600E was less than 100 nM; at KDR (VEGFR2), less than 100 nM; with A375 cells it was less than 1000 nM; with A549 cells it was less than 2000 nM.

As for `O=C(Nc1cccc(F)c1)Nc1cc(F)c(F)c(C(=O)c2ccc3ncc(N4CCOCC4)nc3c2)c1` [Compound C039, 1-(3,4-difluoro-5-(3-morpholinoquinoxaline-6-carbonyl)phenyl)-3-(3-fluorophenyl)urea], the inhibition at 1 µM at BRAF was 70 to 89%; at BRAF V600E, more than 89%; on KDR (VEGFR2) it was 70 to 89%. Further, the IC50 in the assay with A375 cells lay in the range of 1000 to 5000 nM; with A549 cells, 2000 to 5000 nM.

For the molecule `O=C(Nc1cccc(C(F)(F)F)c1)Nc1cc(F)c(F)c(C(=O)c2ccc3ncc(N4CCOCC4)nc3c2)c1` [Compound C040, 1-(3,4-difluoro-5-(3-morpholinoquinoxaline-6-carbonyl)phenyl)-3-(3-(trifluoromethyl)phenyl)urea], the inhibition at 1 µM at BRAF was less than 70%; at BRAF V600E, 70 to 89%; at KDR (VEGFR2), 70 to 89%. The IC50 at BRAF V600E is more than 100 nM; at KDR (VEGFR2), more than 100 nM; in the assay with A375 cells it was less than 1000 nM; in the assay with A549 cells it was less than 2000 nM.

`O=C(Nc1cc(F)c(F)c(C(=O)c2ccc3ncc(N4CCOCC4)nc3c2)c1)Nc1ccc(Cl)c(C(F)(F)F)c1` [Compound C041, 1-(4-chloro-3-(trifluoromethyl)phenyl)-3-(3,4-difluoro-5-(3-morpholinoquinoxaline-6-carbonyl)phenyl)urea]: the inhibition at 1 µM was less than 70% at BRAF, 70 to 89% on BRAF V600E and 70 to 89% at KDR (VEGFR2). The IC50 in the assay with A375 cells is less than 1000 nM; with A549 cells it was less than 2000 nM.

Take `O=C(Nc1ccc(F)c(F)c1)Nc1ccc(F)c(C(=O)c2ccc3ncc(N4CCOCC4)nc3c2)c1` [Compound C046, 1-(3,4-difluorophenyl)-3-(4-fluoro-3-(3-morphlinoquinoxaline-6-carbonyl)phenyl)urea]: the inhibition at 1 µM is 70 to 89% at BRAF, more than 89% on BRAF V600E and more than 89% on KDR (VEGFR2). Moreover, the IC50 with A375 cells was less than 1000 nM; with A549 cells it was less than 2000 nM.

For `O=C(Nc1ccc(F)cc1)Nc1ccc(F)c(C(=O)c2ccc3ncc(N4CCOCC4)nc3c2)c1` [Compound C053, 1-(4-fluoro-3-(3-morpholinoquinoxaline-6-carbonyl)phenyl)-3-(4-fluorophenyl)urea], the inhibition at 1 µM on BRAF, at BRAF V600E and on KDR (VEGFR2) was more than 89% each time. The IC50 was less than 100 nM at KDR (VEGFR2), less than 1000 nM in the assay on A375 cells and less than 2000 nM in the assay with A549 cells.

Take `O=C(Nc1ccc(Cl)c(Cl)c1)Nc1ccc(F)c(C(=O)c2ccc3nccnc3c2)c1` [Compound C076, 1-(3,4-dichlorophenyl)-3-(4-fluoro-3-(quinoxaline-6-carbonyl)phenyl)urea]: the values for the inhibition at 1 µM at BRAF, on BRAF V600E and at KDR (VEGFR2) were 70 to 89%, more than 89% and 70 to 89%, respectively. Further, the IC50 in the assay with A375 cells is less than 1000 nM; in the assay with A549 cells it was 2000 to 5000 nM.

Turning to `O=C(Nc1cncc(F)c1)Nc1ccc(F)c(C(=O)c2ccc3ncc(N4CCOCC4)nc3c2)c1` [Compound C079, 1-(4-fluoro-3-(3-morpholinoquinoxaline-6-carbonyl)phenyl)-3-(5-fluoropyridin-3-yl)urea], the inhibition at 1 µM at BRAF is more than 89%; on BRAF V600E, more than 89%; at KDR (VEGFR2), 70 to 89%. Moreover, the IC50 in the assay with A375 cells and with A549 cells was more than 5000 nM in each case.

With `COc1cnc2ccc(C(=O)c3cc(NC(=O)Nc4ccc(F)cc4)ccc3F)cc2n1` [Compound C080, 1-(4-fluoro-3-(3-methoxyquinoxaline-6-carbonyl)phenyl)-3-(4-fluorophenyl)urea], the inhibition at 1 µM on BRAF is 70 to 89%; on BRAF V600E it was more than 89%; on KDR (VEGFR2), 70 to 89%. Besides, the IC50 was less than 100 nM at KDR (VEGFR2), 1000 to 5000 nM in the assay with A375 cells and 2000 to 5000 nM with A549 cells.

For the molecule `O=C(Nc1cncc(Cl)c1)Nc1ccc(F)c(C(=O)c2ccc3ncc(N4CCOCC4)nc3c2)c1` [Compound C081, 1-(5-chloropyridin-3-yl)-3-(4-fluoro-3-(3-morpholinoquinoxaline-6-carbonyl)phenyl)urea], the figures for the inhibition at 1 µM on BRAF, on BRAF V600E and on KDR (VEGFR2) were more than 89%, more than 89% and 70 to 89%, respectively. The IC50 in the assay on A375 cells was less than 1000 nM; with A549 cells, more than 5000 nM.

`COc1cnc2ccc(C(=O)c3cc(NC(=O)Nc4ccc(F)c(F)c4)ccc3F)cc2n1` [Compound C082, 1-(3,4-difluorophenyl)-3-(4-fluoro-3-(3-methoxyquinoxaline-6-carbonyl)phenyl)urea]: the inhibition at 1 µM is less than 70% on BRAF, more than 89% at BRAF V600E and 70 to 89% at KDR (VEGFR2). In addition, the IC50 with A375 cells lay within 1000 to 5000 nM; in the assay with A549 cells, 2000 to 5000 nM.

`O=C(Nc1cccc(C(F)(F)F)c1)Nc1ccc(F)c(C(=O)c2ccc3ncc(N4CCNCC4)nc3c2)c1` [Compound C085, 1-(4-fluoro-3-(3-(piperazin-1-yl)quinoxaline-6-carbonyl)phenyl)-3-(3-(trifluoromethyl)phenyl)urea]: the inhibition at 1 µM at BRAF, at BRAF V600E and on KDR (VEGFR2) was more than 89% in each case. The IC50 with A375 cells is less than 1000 nM; with A549 cells, less than 2000 nM.

On to `O=C(Nc1ccc(F)c(F)c1)Nc1ccc(F)c(C(=O)c2ccc3ncc(NCCO)nc3c2)c1` [Compound C087, 1-(3,4-difluorophenyl)-3-(4-fluoro-3-(3-((2-hydroxyethyl)amino)quinoxaline-6-carbonyl)phenyl)urea], for which the inhibition at 1 µM at BRAF, on BRAF V600E and at KDR (VEGFR2) was more than 89% each time. The figures for the IC50 with A375 cells and with A549 cells were less than 1000 nM and 2000 to 5000 nM, respectively.

As for `O=C(Nc1ccnc(C(F)(F)F)c1)Nc1ccc(F)c(C(=O)c2ccc3ncc(N4CCOCC4)nc3c2)c1` [Compound C090, 1-(4-fluoro-3-(3-morpholinoquinoxaline-6-carbonyl)phenyl)-3-(2-(trifluoromethyl)pyridin-4-yl)urea], the figures for the inhibition at 1 µM at BRAF, at BRAF V600E and on KDR (VEGFR2) were more than 89%, more than 89% and 70 to 89%, respectively. The IC50 is less than 1000 nM in the assay with A375 cells and more than 5000 nM in the assay on A549 cells.

As for `O=C(Nc1cccc(C(=O)c2ccc3nccnc3c2)c1)c1cccc(F)c1` [Compound C105, 3-fluoro-N-(3-(quinoxaline-6-carbonyl)phenyl)benzamide], the inhibition at 1 µM at BRAF is less than 70%; on BRAF V600E it was 70 to 89%; at KDR (VEGFR2) it was less than 70%. Further, the IC50 in the assay on A375 cells is 1000 to 5000 nM; with A549 cells it was less than 2000 nM.

`O=C(c1cccc(NC(=O)c2cc(C(F)(F)F)ccc2Cl)c1)c1ccc2nccnc2c1` [Compound C106, 2-chloro-N-(3-(quinoxaline-6-carbonyl)phenyl)-5-(trifluoromethyl)benzamide]: the inhibition at 1 µM at BRAF is less than 70%; on BRAF V600E, 70 to 89%; on KDR (VEGFR2), less than 70%. In addition, the IC50 in the assay on A375 cells was less than 1000 nM; in the assay with A549 cells, more than 5000 nM.

Take `O=C(Nc1cccc(C(=O)c2ccc3nccnc3c2)c1)c1ccc(C(F)(F)F)c(Cl)c1` [Compound C107, 3-chloro-N-(3-(quinoxaline-6-carbonyl)phenyl)-4-(trifluoromethyl)benzamide]: the inhibition at 1 µM at BRAF was less than 70%; at BRAF V600E, more than 89%; on KDR (VEGFR2) it was less than 70%. In addition, the IC50 in the assay with A375 cells is 1000 to 5000 nM; with A549 cells, more than 5000 nM.
